According to article PMC8412899 (ACS Omega, 2021):

Each compound was assayed against MCL-1 (Homo sapiens, UniProt Q07820) (assay: FP). Details: not given.
Type: binding

MCL-1, sequence (Q07820 whole entry): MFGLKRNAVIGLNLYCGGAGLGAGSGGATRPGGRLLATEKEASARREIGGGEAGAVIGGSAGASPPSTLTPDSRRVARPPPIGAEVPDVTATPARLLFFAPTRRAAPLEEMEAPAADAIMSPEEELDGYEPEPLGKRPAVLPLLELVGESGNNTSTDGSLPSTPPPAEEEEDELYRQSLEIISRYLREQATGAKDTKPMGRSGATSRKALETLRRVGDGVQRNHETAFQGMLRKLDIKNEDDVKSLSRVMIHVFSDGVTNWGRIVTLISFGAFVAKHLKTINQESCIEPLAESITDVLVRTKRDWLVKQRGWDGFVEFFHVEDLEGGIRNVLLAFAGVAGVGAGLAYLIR

Row | FP MCL-1 Ki | Compound
1 | submicromolar | CCc1c(-c2cccc(Cl)c2C)c2c(N[C@H](Cc3ccccc3)C(=O)O)ncnc2n1CCC1CCCC1 (single isomer, unassigned) [Compound 9b, N-[(5Sa)-5-(3-Chloro-2-methylphenyl)-7-(2-cyclopentylethyl)-6-ethyl-7H-pyrrolo[2,3-d]pyrimidin-4-yl]-D-phenylalanine]

Same assay, conditions: @50 μM, highest tested dose

Row | FP MCL-1 inhibition at 50 μM [%@50 μM] | Compound
2 | 78 | CCc1c(-c2cccc(Cl)c2C)c2c(N[C@H](Cc3ccccc3)C(=O)O)ncnc2n1C(C)C [Compound 6b, N-[(5Sa)-5-(3-Chloro-2-methylphenyl)-6-ethyl-7-(propan-2-yl)-7H-pyrrolo[2,3-d]pyrimidin-4-yl]-D-phenylalanine]

Same assay, conditions: FP MCL-1 Ki

Row | Compound | Ki [µM]
3 | C=CCn1c(CC)c(-c2cccc(Cl)c2C)c2c(N[C@H](Cc3ccccc3)C(=O)O)ncnc21 (single isomer, unassigned) [Compound 3b, N-[(5Sa)-5-(3-Chloro-2-methylphenyl)-6-ethyl-7-(prop-2-en-1-yl)-7H-pyrrolo[2,3-d]pyrimidin-4-yl]-D-phenylalanine] | 9.1
4 | C=CCn1c(Br)c(-c2cccc(Cl)c2C)c2c(N[C@H](Cc3ccccc3)C(=O)O)ncnc21 (single isomer, unassigned) [Compound 4a, N-[6-Bromo-(5Sa)-5-(3-chloro-2-methylphenyl)-7-(prop-2-en-1-yl)-7H-pyrrolo[2,3-d]pyrimidin-4-yl]-D-phenylalanine] | 2.5
5 | CCc1c(-c2cccc(Cl)c2C)c2c(N[C@H](Cc3ccccc3)C(=O)O)ncnc2n1CC(F)(F)F (single isomer, unassigned) [Compound 5b, N-[(5Sa)-5-(3-Chloro-2-methylphenyl)-6-ethyl-7-(2,2,2-trifluoroethyl)-7H-pyrrolo[2,3-d]pyrimidin-4-yl]-D-phenylalanine] | 8.5
6 | CC#CCn1c(CC)c(-c2cccc(Cl)c2C)c2c(N[C@H](Cc3ccccc3)C(=O)O)ncnc21 (single isomer, unassigned) [Compound 7a, N-[7-(But-2-yn-1-yl)-(5Ra)-5-(3-chloro-2-methylphenyl)-6-ethyl-7H-pyrrolo[2,3-d]pyrimidin-4-yl]-D-phenylalanine] | 5.9
7 | CCc1c(-c2cccc(Cl)c2C)c2c(N[C@H](Cc3ccccc3)C(=O)O)ncnc2n1Cc1ccccc1 (single isomer, unassigned) [Compound 8a, N-[7-Benzyl-(5Ra)-5-(3-chloro-2-methylphenyl)-6-ethyl-7H-pyrrolo[2,3-d]pyrimidin-4-yl]-D-phenylalanine] | 6.5
8 | CCc1c(-c2cccc(Cl)c2C)c2c(N[C@H](Cc3ccccc3)C(=O)O)ncnc2n1Cc1ccccc1 (single isomer, unassigned) [Compound 8b, N-[7-Benzyl-(5Sa)-5-(3-chloro-2-methylphenyl)-6-ethyl-7H-pyrrolo[2,3-d]pyrimidin-4-yl]-D-phenylalanine] | 0.53
9 | CCc1c(-c2cccc(Cl)c2C)c2c(N[C@H](Cc3ccccc3)C(=O)O)ncnc2n1Cc1cccc2ccccc12 (single isomer, unassigned) [Compound 10a, N-[(5Ra)-5-(3-Chloro-2-methylphenyl)-6-ethyl-7-(naphthalen-1-ylmethyl)-7H-pyrrolo[2,3-d]pyrimidin-4-yl]-D-Phenylalanine] | 3.5
10 | CCc1c(-c2cccc(Cl)c2C)c2c(N[C@H](Cc3ccccc3)C(=O)O)ncnc2n1Cc1cccc2ccccc12 (single isomer, unassigned) [Compound 10b, N-[(5Sa)-5-(3-Chloro-2-methylphenyl)-6-ethyl-7-(naphthalen-1-ylmethyl)-7H-pyrrolo[2,3-d]pyrimidin-4-yl]-D-phenylalanine] | 0.26
11 | Cc1c(Cl)cccc1-c1c2n(c3ncnc(N[C@H](Cc4ccccc4)C(=O)O)c13)CCCC2 (single isomer, unassigned) [Compound 12b, N-[(5Sa)-5-(3-Chloro-2-methylphenyl)-6,7,8,9-tetrahydropyrimido[5,4-b]indolizin-4-yl]-D-phenylalanine] | 5.9
12 | COc1ccccc1C[C@@H](Oc1ncnc2sc(-c3ccc(F)cc3)c(-c3ccc(OCCN4CCN(C)CC4)c(Cl)c3C)c12)C(=O)O [Compound 13, (2R)-2-{[(5Sa)-5-{3-Chloro-2-methyl-4-[2-(4-methylpiperazin-1-yl)ethoxy]phenyl}-6-(4-fluorophenyl)thieno[2,3-d]pyrimidin-4-yl]oxy}-3-(2-methoxyphenyl)propanoic Acid] | 0.014

Next, values leading:

Row | Ki [µM] | Compound
13 | 18 | C=CCn1c(CC)c(-c2cccc(Cl)c2C)c2c(N[C@H](Cc3ccccc3)C(=O)O)ncnc21 (single isomer, unassigned) [Compound 3a, N-[(5Ra)-5-(3-Chloro-2-methylphenyl)-6-ethyl-7-(prop-2-en-1-yl)-7H-pyrrolo[2,3-d]pyrimidin-4-yl]-D-phenylalanine]
14 | 0.33 | CC#CCn1c(CC)c(-c2cccc(Cl)c2C)c2c(N[C@H](Cc3ccccc3)C(=O)O)ncnc21 (single isomer, unassigned) [Compound 7b, N-[7-(But-2-yn-1-yl)-(5Sa)-5-(3-chloro-2-methylphenyl)-6-ethyl-7H-pyrrolo[2,3-d]pyrimidin-4-yl]-D-phenylalanine]
15 | 3.5 | CCc1c(-c2cccc(Cl)c2C)c2c(N[C@H](Cc3ccccc3)C(=O)O)ncnc2n1CCC1CCCC1 (single isomer, unassigned) [Compound 9a, N-[(5Ra)-5-(3-Chloro-2-methylphenyl)-7-(2-cyclopentylethyl)-6-ethyl-7H-pyrrolo[2,3-d]pyrimidin-4-yl]-D-phenylalanine]
16 | 0.79 | CCc1c(-c2cccc(Cl)c2C)c2c(N[C@H](Cc3ccccc3)C(=O)O)ncnc2n1CCC1CCCC1 (single isomer, unassigned) [Compound 9b, N-[(5Sa)-5-(3-Chloro-2-methylphenyl)-7-(2-cyclopentylethyl)-6-ethyl-7H-pyrrolo[2,3-d]pyrimidin-4-yl]-D-phenylalanine]
17 | 11 | Cc1c(Cl)cccc1-c1c2n(c3ncnc(N[C@H](Cc4ccccc4)C(=O)O)c13)CCCC2 (single isomer, unassigned) [Compound 12a, N-[(5Ra)-5-(3-Chloro-2-methylphenyl)-6,7,8,9-tetrahydropyrimido[5,4-b]indolizin-4-yl]-D-phenylalanine]

Same assay, conditions: less active form compared to more active isomer 3b

Row | fold less potent (FP affinity) [fold] | Compound
18 | 2 | C=CCn1c(CC)c(-c2cccc(Cl)c2C)c2c(N[C@H](Cc3ccccc3)C(=O)O)ncnc21 (single isomer, unassigned) [Compound 3a, N-[(5Ra)-5-(3-Chloro-2-methylphenyl)-6-ethyl-7-(prop-2-en-1-yl)-7H-pyrrolo[2,3-d]pyrimidin-4-yl]-D-phenylalanine]

Same assay, conditions: read-out: FP MCL-1 inhibition at 50 μM, @50 μM, highest tested dose

Row | Compound | inhibition at 50 µM [%]
19 | CCc1c(-c2cccc(Cl)c2C)c2c(N[C@H](Cc3ccccc3)C(=O)O)ncnc2n1CC(F)(F)F (single isomer, unassigned) [Compound 5a, N-[(5Ra)-5-(3-Chloro-2-methylphenyl)-6-ethyl-7-(2,2,2-trifluoroethyl)-7H-pyrrolo[2,3-d]pyrimidin-4-yl]-D-phenylalanine] | 63
20 | CCc1c(-c2cccc(Cl)c2C)c2c(N[C@H](Cc3ccccc3)C(=O)O)ncnc2n1C(C)C [Compound 6a, N-[(5Ra)-5-(3-Chloro-2-methylphenyl)-6-ethyl-7-(propan-2-yl)-7H-pyrrolo[2,3-d]pyrimidin-4-yl]-D-phenylalanine] | 67

Results, then the compound that gave them:

Row | inhibition at 50 µM [%] | Compound
21 | 65 | CCc1c(-c2cccc(Cl)c2C)c2c(N[C@H](Cc3ccccc3)C(=O)O)ncnc2n1C (single isomer, unassigned) [Compound 2a, N-[(5Ra)-5-(3-Chloro-2-methylphenyl)-6-ethyl-7-methyl-7H-pyrrolo[2,3-d]pyrimidin-4-yl]-D-phenylalanine]
22 | 66 | C=CCn1c(Br)c(-c2cccc(Cl)c2C)c2c(N[C@H](Cc3ccccc3)C(=O)O)ncnc21 (single isomer, unassigned) [Compound 4b, N-[6-Bromo-(5Ra)-5-(3-chloro-2-methylphenyl)-7-(prop-2-en-1-yl)-7H-pyrrolo[2,3-d]pyrimidin-4-yl]-D-phenylalanine]
